Test results as given in ChEMBL document CHEMBL1201862, “PubChem BioAssay data set” (2004).
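In this assay, cells in 96-well plates receive the compound at five concentrations for 48 hours. Endpoints are linearly interpolated between the surrounding concentrations. GI50 marks 50% less growth.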 Calls of active or inactive are those of the source. No stated cut-off is given here; in the data, active = GI50 up to about 1.1 µM and inactive = higher.

Legend:
Assay in all cases: growth of human tumour cells (NCI), 48 h
K562 = system: K562
PC-3 = system: PC-3
M14 = system: M14
LOX IMVI = system: LOX IMVI
SN12C = system: SN12C
HCT-15 = system: HCT-15
SK-MEL-5 = system: SK-MEL-5
MDA-N = system: MDA-N
OVCAR-5 = system: OVCAR-5
Malme-3M = system: Malme-3M
SK-OV-3 = system: SK-OV-3
MCF7 = system: MCF7
ACHN = system: ACHN
HOP-92 = system: HOP-92
T47D = system: T47D
SF-539 = system: SF-539
SF-295 = system: SF-295
UACC-62 = system: UACC-62
A498 = system: A498
UO-31 = system: UO-31

CC(C)C(C/C=C1\CC(CO)(COC(=O)CC(C(C)C)C(C)C)OC1=O)C(C)C (stereo not given)
GI50 (K562): 1.36 µM (inactive)
GI50 (PC-3): 11.7 µM (inactive)
GI50 (M14): 11.7 µM (inactive)
GI50 (LOX IMVI): 12.6 µM (inactive)
GI50 (SN12C): 9.1 µM (inactive)
GI50 (HCT-15): 18.5 µM
GI50 (SK-MEL-5): 11 µM (inactive)
GI50 (MDA-N): 2.96 µM (inactive)
GI50 (OVCAR-5): 13.9 µM (inactive)
GI50 (Malme-3M): 1.45 µM (inactive)
GI50 (SK-OV-3): 17.7 µM (inactive)
GI50 (MCF7): 15.7 µM (inactive)
GI50 (ACHN): 10.3 µM (inactive)
GI50 (HOP-92): 0.902 µM (active)
GI50 (T47D): 13.3 µM (inactive)
GI50 (SF-539): 18.3 µM (inactive)
GI50 (SF-295): 4.62 µM (inactive)
GI50 (UACC-62): 15.1 µM (inactive)
GI50 (A498): 11.7 µM (inactive)
GI50 (UO-31): 6.87 µM (inactive)

CN(CCn1cnc2c1c(=O)n(C)c(=O)n2C)C1CCCCC1
GI50 (K562): > 100 µM (inactive)
GI50 (PC-3): > 100 µM (inactive)
GI50 (M14): > 100 µM (inactive)
GI50 (LOX IMVI): > 100 µM (inactive)
GI50 (SN12C): > 100 µM (inactive)
GI50 (HCT-15): > 100 µM
GI50 (SK-MEL-5): > 100 µM (inactive)
GI50 (MDA-N): > 100 µM (inactive)
GI50 (OVCAR-5): > 100 µM (inactive)
GI50 (Malme-3M): > 100 µM (inactive)
GI50 (SK-OV-3): > 100 µM (inactive)
GI50 (MCF7): > 100 µM (inactive)
GI50 (ACHN): > 100 µM (inactive)
GI50 (HOP-92): > 100 µM (inactive)
GI50 (T47D): > 100 µM (inactive)
GI50 (SF-539): > 100 µM (inactive)
GI50 (SF-295): > 100 µM (inactive)
GI50 (UACC-62): > 100 µM (inactive)
GI50 (A498): > 100 µM (inactive)
GI50 (UO-31): > 100 µM (inactive)

CN(C)c1ccc(/C=C(\NC(=O)c2ccccc2)C(=O)Nc2ccccc2C(=O)NN2C(=O)CSC2c2ccc(N(C)C)cc2)cc1 (stereo not given)
GI50 (K562): 33.3 µM (inactive)
GI50 (PC-3): > 100 µM (inactive)
GI50 (M14): > 100 µM (inactive)
GI50 (LOX IMVI): > 100 µM (inactive)
GI50 (SN12C): > 100 µM (inactive)
GI50 (HCT-15): 92.7 µM
GI50 (SK-MEL-5): 94.6 µM (inactive)
GI50 (MDA-N): > 100 µM (inactive)
GI50 (OVCAR-5): > 100 µM (inactive)
GI50 (Malme-3M): > 100 µM (inactive)
GI50 (SK-OV-3): > 100 µM (inactive)
GI50 (MCF7): > 100 µM (inactive)
GI50 (ACHN): > 100 µM (inactive)
GI50 (HOP-92): > 100 µM (inactive)
GI50 (T47D): > 100 µM (inactive)
GI50 (SF-539): 79.8 µM (inactive)
GI50 (SF-295): > 100 µM (inactive)
GI50 (UACC-62): > 100 µM (inactive)
GI50 (A498): > 100 µM (inactive)
GI50 (UO-31): > 100 µM (inactive)

CCC(C)C(=O)OC1CC2(C)C(c3ccoc3)OC(=O)CC23OC2(C)OC34C(OC(=O)C(C)C)C3(O)C(OC(=O)C5(C)OC5C)C5(C)CC3(O)C(C)(C5CC(=O)OC)C14O2 (stereo not given)
GI50 (K562): 27.8 µM (inactive)
GI50 (PC-3): 31.8 µM (inactive)
GI50 (M14): 42.9 µM (inactive)
GI50 (LOX IMVI): 52.7 µM (inactive)
GI50 (SN12C): > 100 µM (inactive)
GI50 (HCT-15): 40.6 µM
GI50 (SK-MEL-5): 22.8 µM (inactive)
GI50 (MDA-N): 47.1 µM (inactive)
GI50 (OVCAR-5): 91.2 µM (inactive)
GI50 (Malme-3M): > 100 µM (inactive)
GI50 (SK-OV-3): > 100 µM (inactive)
GI50 (MCF7): 17.6 µM (inactive)
GI50 (ACHN): 37 µM (inactive)
GI50 (HOP-92): 36.8 µM (inactive)
GI50 (T47D): 23.1 µM (inactive)
GI50 (SF-539): 15 µM (inactive)
GI50 (SF-295): 41.1 µM (inactive)
GI50 (UACC-62): 86.9 µM (inactive)
GI50 (A498): 75.5 µM (inactive)
GI50 (UO-31): 35.9 µM (inactive)

COc1cc(C(N)=O)cc(NC(=O)/C=C/c2ccccc2)c1OC
GI50 (K562): > 100 µM (inactive)
GI50 (PC-3): > 100 µM (inactive)
GI50 (M14): > 100 µM (inactive)
GI50 (LOX IMVI): > 100 µM (inactive)
GI50 (SN12C): > 100 µM (inactive)
GI50 (HCT-15): > 100 µM
GI50 (SK-MEL-5): 64.7 µM (inactive)
GI50 (MDA-N): > 100 µM (inactive)
GI50 (OVCAR-5): > 100 µM (inactive)
GI50 (Malme-3M): > 100 µM (inactive)
GI50 (SK-OV-3): 49.4 µM (inactive)
GI50 (MCF7): > 100 µM (inactive)
GI50 (ACHN): > 100 µM (inactive)
GI50 (HOP-92): 35.7 µM (inactive)
GI50 (T47D): 71.1 µM (inactive)
GI50 (SF-539): 83 µM (inactive)
GI50 (SF-295): 59.6 µM (inactive)
GI50 (UACC-62): > 100 µM (inactive)
GI50 (A498): > 100 µM (inactive)
GI50 (UO-31): > 100 µM (inactive)

COc1ccc(C)c2c1N[C@](C)([C@]1(C)Nc3c(OC)ccc(C)c3C1=O)C2=O
GI50 (K562): > 100 µM (inactive)
GI50 (PC-3): > 100 µM (inactive)
GI50 (M14): > 100 µM (inactive)
GI50 (LOX IMVI): > 100 µM (inactive)
GI50 (SN12C): > 100 µM (inactive)
GI50 (HCT-15): > 100 µM
GI50 (SK-MEL-5): > 100 µM (inactive)
GI50 (MDA-N): > 100 µM (inactive)
GI50 (OVCAR-5): > 100 µM (inactive)
GI50 (Malme-3M): > 100 µM (inactive)
GI50 (SK-OV-3): > 100 µM (inactive)
GI50 (MCF7): > 100 µM (inactive)
GI50 (ACHN): > 100 µM (inactive)
GI50 (HOP-92): 38 µM (inactive)
GI50 (T47D): > 100 µM (inactive)
GI50 (SF-539): > 100 µM (inactive)
GI50 (SF-295): 41.4 µM (inactive)
GI50 (UACC-62): > 100 µM (inactive)
GI50 (A498): > 100 µM (inactive)
GI50 (UO-31): > 100 µM (inactive)

CCN(CC)CCNc1c2ccccc2nc2cccc([N+](=O)[O-])c12
GI50 (K562): 0.0157 µM (active)
GI50 (PC-3): 0.00301 µM (active)
GI50 (M14): 0.00925 µM (active)
GI50 (LOX IMVI): 0.0225 µM (active)
GI50 (SN12C): 0.0124 µM (active)
GI50 (HCT-15): 0.00701 µM
GI50 (SK-MEL-5): 0.00902 µM (active)
GI50 (MDA-N): 0.00179 µM (active)
GI50 (OVCAR-5): 0.0101 µM (active)
GI50 (Malme-3M): 0.00953 µM (active)
GI50 (SK-OV-3): 0.0343 µM (active)
GI50 (MCF7): 0.00135 µM (active)
GI50 (ACHN): 0.00665 µM (active)
GI50 (HOP-92): 0.0146 µM (active)
GI50 (T47D): 0.0101 µM (active)
GI50 (SF-539): 0.0224 µM (active)
GI50 (SF-295): 0.00912 µM (active)
GI50 (UACC-62): 0.0143 µM (active)
GI50 (A498): 0.00782 µM (active)
GI50 (UO-31): 0.0198 µM (active)

CC(=O)OCC(=O)O[C@@H]1[C@H]2[C@@H](OC(=O)c3ccccc3)[C@@H](C)C[C@]2(O)[C@H](OC(C)=O)[C@@]2(C)C[C@]1(OC(C)=O)C[C@H]1C(=O)C(C)(C)[C@@H](OC(C)=O)[C@@H]12
GI50 (K562): 1.48 µM (inactive)
GI50 (PC-3): 22.4 µM (inactive)
GI50 (M14): > 12.1 µM (inactive)
GI50 (LOX IMVI): > 25 µM (inactive)
GI50 (SN12C): > 25 µM (inactive)
GI50 (HCT-15): > 25 µM
GI50 (SK-MEL-5): 9.46 µM (inactive)
GI50 (MDA-N): 6.98 µM (inactive)
GI50 (OVCAR-5): 10 µM (inactive)
GI50 (Malme-3M): > 25 µM (inactive)
GI50 (SK-OV-3): > 25 µM (inactive)
GI50 (MCF7): > 25 µM (inactive)
GI50 (ACHN): > 25 µM (inactive)
GI50 (HOP-92): > 16.3 µM (inactive)
GI50 (T47D): > 25 µM (inactive)
GI50 (SF-539): > 25 µM (inactive)
GI50 (SF-295): 6.01 µM (inactive)
GI50 (UACC-62): > 25 µM (inactive)
GI50 (A498): 13.4 µM (inactive)
GI50 (UO-31): 0.912 µM (active)

O=C(CNc1ccc2c(=S)c3ccccc3[nH]c2c1)Nc1ccccc1-c1ccccc1NC(=O)CNc1ccc2c(=S)c3ccccc3[nH]c2c1
GI50 (K562): 2.85 µM (inactive)
GI50 (PC-3): 19.4 µM (inactive)
GI50 (M14): 16.3 µM (inactive)
GI50 (LOX IMVI): 19.9 µM (inactive)
GI50 (SN12C): 22.2 µM (inactive)
GI50 (HCT-15): 19.4 µM
GI50 (SK-MEL-5): 15.2 µM (inactive)
GI50 (MDA-N): 18.1 µM (inactive)
GI50 (OVCAR-5): 28.7 µM (inactive)
GI50 (Malme-3M): 15.7 µM (inactive)
GI50 (SK-OV-3): 26.3 µM (inactive)
GI50 (MCF7): 16.4 µM (inactive)
GI50 (ACHN): 15.8 µM (inactive)
GI50 (HOP-92): 23 µM (inactive)
GI50 (T47D): 15.6 µM (inactive)
GI50 (SF-539): 24.7 µM (inactive)
GI50 (SF-295): 21.2 µM (inactive)
GI50 (UACC-62): 18.2 µM (inactive)
GI50 (A498): 25.2 µM (inactive)
GI50 (UO-31): 15.3 µM (inactive)

Cc1ccc2c(O)cc(-c3cccc4ccccc34)nc2n1
GI50 (K562): < 0.01 µM (active)
GI50 (PC-3): 0.0282 µM (active)
GI50 (M14): 0.0247 µM (active)
GI50 (LOX IMVI): 0.0229 µM (active)
GI50 (SN12C): 0.181 µM (active)
GI50 (HCT-15): 0.0206 µM
GI50 (SK-MEL-5): < 0.0117 µM (active)
GI50 (MDA-N): < 0.01 µM (active)
GI50 (OVCAR-5): 0.0375 µM (active)
GI50 (Malme-3M): < 0.01 µM (active)
GI50 (SK-OV-3): 0.021 µM (active)
GI50 (MCF7): 0.0256 µM (active)
GI50 (ACHN): 0.102 µM (active)
GI50 (HOP-92): 0.0127 µM (active)
GI50 (T47D): 67.8 µM (inactive)
GI50 (SF-539): 0.0216 µM (active)
GI50 (SF-295): 0.0193 µM (active)
GI50 (UACC-62): 0.01 µM (active)
GI50 (A498): 0.0101 µM (active)
GI50 (UO-31): 0.189 µM (active)
